Legend:
[1] = system: STAT5 Y694 phosphorylation; experiment: HTRF experiment: STAT5 Y694 phosphorylation in Hela cells stimulated with human interferon beta; type: cell-based; details: 2 hours pretreatment, 10 nM human interferon beta 30 minutes
Experimental: Example of Effect 3: HTRF Experiment
Human Interferon 3 (IFN-0) (GenScript, Cat #P01574), STAT5 Y694 phosphorylation detection kit (STAT5 phospho-Y694 kit) (Cisbio; Cat #64AT5PEG).
Hela cells (ATCC American Standard Culture Center, CCL-2) were cultured in a 96-well plate at a density of 3×10^4 cells/well with DMEM medium containing 5% fetal bovine serum and maintained at 37° C. in a humidified incubator with 5% carbon dioxide overnight. On the second day, the original DMEM medium in the 96-well plate was sucked dry, and an equal volume of medium containing different concentrations of compounds (the mother liquor of the compound prepared by dimethyl sulfoxide was diluted in the medium at the required concentration) was added for pretreatment for 2 hours, and then it was placed in an incubator at 37° C. Then human interferon beta with a final concentration of 10 nM was added to stimulate, and it was gently shaken to mix well and then placed in an incubator at 37° C. for 30 minutes.
The medium was removed, an appropriate volume of PBS was added to wash, and then it was sucked dry. Then 40 microliters of 1× Lysis Buffer was added to each well and it was stood for 30 minutes at room temperature (1 ml 1× lysate preparation: 740 μl ddH2O was added to 250 μl 4× lysate and 10 μl Blocking reagent and it was mixed thoroughly). After 30 minutes, the cells were repeatedly blown until the lysis solution was not viscous (avoiding blowing out bubbles) to achieve sufficient lysis.
After overnight incubation, the signals of 665 nm and 620 nm were detected in a multifunctional microplate reader. The calculation formula for the detection of STAT5 Y694 phosphorylation is: Ratio=[(signal 665 nm)/(signal 620 nm)]×10^4. Treatment with dimethyl sulfoxide alone was the baseline control (Ratiobase), and the human interferon β stimulation without addition of the compound was the STAT5 Y694 full phosphorylation activation control (Ratiostimulation), the inhibition rate of STAT5 Y694 phosphorylation of different samples was normalized: Inhibition rate=[1−(RatioExperiment−Ratiobase)/(Ratiostimulation−Ratiobase)]*100.

[2] = system: STAT5 Y694 phosphorylation; experiment: Protein electrophoresis and blotting of STAT5 Y694 phosphorylation in Jurkat cells stimulated with human interferon beta; type: cell-based; details: observed pSTAT5 bands at 10 μM and 100 μM
Experimental: Example of Effect 1: Protein Electrophoresis and Blotting Experiment
Standard protein electrophoresis and chemiluminescence imaging equipment (Bio-Rad);
Protein lysate RIPA (Lianke Biological; Cat #WB020); Western blot transfer membrane PVDF (Millipore; Cat #IPVH00010);
Jurkat cells (ATCC American Standard Culture Center, TIB152) were cultured in a 6-well plate at a density of 1×10^6/ml with RPMI medium […] 10% fetal bovine serum in a humidified incubator at 37° C. and maintained at 5% carbon dioxide overnight. On the second day, the cells were pretreated with compounds of different concentrations (the mother liquor of the compound prepared by dimethyl sulfoxide was diluted in the medium at the required concentration) for 1 hour, and then stimulated with 20 ng/ml human interferon beta for 30 minutes, it was mixed thoroughly and then placed in an incubator at 37° C. environment. […] Then an appropriate volume of RIPA Lysis Solution was added, it was mixed well, and placed on ice for 1 hour, inverted and mixed several times in the middle. Then, the cell lysate was centrifuged at 12000 rpm at 4° C. for 10 minutes, and the supernatant was transferred to another test tube, aliquoted and stored at −20° C. until use.
An equal volume of protein lysate was mixed with an appropriate 6-fold protein loading buffer (Biyun Tian Biochemical Company P0015F), and the mixture was heated at 95 degrees for 10 minutes, after full denaturation, the protein sample was added to the polyacrylamide gel (self-made, raw material purchased from Soleibao Biotechnology Company A1010, 30% acrylamide solution), and electrophoresis was performed at the appropriate voltage for 1 hour, until the strips were fully separated. It was transferred to a polyvinylidene fluoride membrane according to standard procedures, and blocked with 5% skim milk for 1 hour, and the specified antibody was added, and it was diluted 1:1000 in 3% bovine serum albumin, and it was incubated overnight for four degrees. It was thoroughly rinsed, incubated with the secondary antibody, exposed to chemiluminescence and signals were collected. ImageJ software was used to quantify the obtained chemiluminescence results. The same area was selected, the gray values of STAT5 phosphorylation band and GAPDH band of each sample were analyzed, and the ratio of pSTAT5/GAPDH level was calculated. The value of the solvent-treated sample was 100%, and the remaining samples were converted into relative data in the same proportion, that is, the percentage corresponding to the solvent sample. […] The solvent control group was the same as the test compound group except that DMSO was used instead of the DMSO solution of the test compound. N1 (Pimozide) was a specific positive control.

| Structure (SMILES) | Example of Effect 3: Inhibiting Ratio@10 μM (HTRF Experiment) [1] | Example of Effect 1: Inhibiting Ability (Protein Electrophoresis and Blotting) [2] |
| --- | --- | --- |
| O=C(Cc1ccc(C(F)(F)F)cc1)N1CCC(Nc2ccccc2O)CC1 [GEN1-056, 1-(4-((2-hydroxyphenyl)amino)piperidin-1-yl)-2-(4-(trifluoromethyl)phenyl)ethenone] | 13.93% |  |
| O=C(Cc1ccc(C(F)(F)F)cc1)NCCn1c(=O)[nH]c2ccccc21 [GEN1-062, N-(2-(2-oxo-2,3-dihydro-1H-benzo[d]imidazol-1-yl)ethyl)-2-(4-(trifluoromethyl)phenyl)acetamide] | 5.12% |  |
| O=C(Cc1ccc2[nH]ccc2c1)N1CCC(n2c(=O)[nH]c3ccccc32)CC1 [GEN1-077, 3-[1-[2-(1H-indol-5-yl)acetyl]-4-piperidinyl]-1H-benzimidazol-2-one] | 34.25% |  |
| O=c1c2ccc(-n3c(=O)[nH]c4ccccc43)cc2ccn1-c1ccc(C(F)(F)F)cc1 [GEN1-086, 6-(2-oxo-2,3-dihydro-1H-benzo[d]imidazol-1-yl)-2-(4-(trifluoromethyl)phenyl)isoquinoline-1(2H)-one] |  | − |
| CC(C)(C)c1ccc2[nH]c(=O)n(C3CCN(C(=O)Cc4ccc(C(F)(F)F)cc4)CC3)c2c1 [GEN1-088, 6-(tert-butyl)-1-(1-(2-(4-(trifluoromethyl)phenyl)acetyl)piperidin-4-yl)-1H-benzo[d]imidazol-2(3H)-one] |  | + |
| O=C(Cc1ccc(C(F)(F)F)cc1)N1CCC(n2c(=O)[nH]c3ccc(-c4ccccc4)cc32)CC1 [GEN1-090, 6-phenyl-1-(1-(2-(4-(trifluoromethyl)phenyl)acetyl)piperidin-4-yl)-1H-benzo[d]imidazol-2(3H)-one] |  | + |
| NS(=O)(=O)c1cccc2[nH]c(=O)n(C3CCN(C(=O)Cc4ccc(C(F)(F)F)cc4)CC3)c12 [GEN1-094, 2-oxo-3-(1-(2-(4-(trifluoromethyl)phenyl)acetyl)piperidin-4-yl)-2,3-dihydro-1H-benzo[d]imidazol-4-sulfonamide] |  | + |
| NC(=O)c1cccc2[nH]c(=O)n(C3CCN(C(=O)Cc4ccc(C(F)(F)F)cc4)CC3)c12 [GEN1-095, 2-oxo-3-(1-(2-(4-(trifluoromethyl)phenyl)acetyl)piperidin-4-yl)-2,3-dihydro-1H-benzo[d]imidazol-4-carboxamide] |  | − |
| O=C(Cc1ccc2c(c1)OCO2)N1CCC(n2c(=O)[nH]c3ccccc32)CC1 [GEN1-096, 1-(1-(2-(benzo[d][1,3]dioxol-5-yl)acetyl)piperidin-4-yl)-1H-benzo[d]imidazol-2(3H)-one] |  | + |
| CN(C)c1ccc(CC(=O)N2CCC(n3c(=O)[nH]c4ccccc43)CC2)cc1 [GEN1-097, 1-(1-(2-(4-(dimethylamino)phenyl)acetyl)piperidin-4-yl)-1H-benzo[d]imidazol-2(3H)-one] |  | + |
| O=C(CC12CC3CC(CC(C3)C1)C2)N1CCC(n2c(=O)[nH]c3ccccc32)CC1 [GEN1-098, 1-(1-(2-(adamantan-1-yl)acetyl)piperidin-4-yl)-1H-benzo[d]imidazol-2(3H)-one] |  | + |
| O=C1CN(C2CCN(C(=O)Cc3ccc(C(F)(F)F)cc3)CC2)c2c(cccc2[N+](=O)[O-])N1 [GEN1-101, 5-nitro-4-(1-(2-(4-(trifluoromethyl)phenyl)acetyl)piperidin-4-yl)-3,4-dihydroquinoxaline-2(1H)-one] |  | + |
| O=C1CCN(C2CCN(C(=O)Cc3ccc(C(F)(F)F)cc3)CC2)c2ccccc2N1 [GEN1-102, 5-(1-(2-(4-(trifluoromethyl)phenyl)acetyl)piperidin-4-yl)-4,5-dihydro-1H-benzo[b][1,4]diazepine-2(3H)-one] |  | + |
| CS(=O)(=O)Nc1ccc(CC(=O)N2CCC(n3c(=O)[nH]c4ccccc43)CC2)cc1 [GEN1-110] | −10.49% |  |
| CC(C)(C)c1ccc(CC(=O)N2CCC(n3c(=O)[nH]c4cccc(C(F)(F)F)c43)CC2)cc1 [GEN1-115, 1-(1-(2-(4-(tert-butyl)phenyl)acetyl)piperidin-4-yl)-7-(trifluoromethyl)-1^1H-benzo[d]imidazol-2(3H)-one] |  | + |
| O=C1CN(C2CCN(C(=O)Cc3ccc4ncccc4c3)CC2)c2ccccc2N1 [GEN1-120, 4-(1-(2-(quinolin-6-yl)acetyl)piperidin-4-yl)-3,4-dihydroquinoxaline-2(1H)-one] |  | − |
| CC(C)(C)c1ccc(CC(=O)N2CCC(N3CC(=O)Nc4ccccc43)CC2)cc1 [GEN1-122, 4-(1-(2-(4-(tert-butyl)phenyl)acetyl)piperidin-4-yl)-3,4-dihydroquinoxaline-2(1H)-one] |  | + |
| O=C(Cc1ccc(C(F)(F)F)cc1)N1CCC(n2c(=O)c(=O)[nH]c3ccccc32)CC1 [GEN1-127, 1-(1-(2-(4-(trifluoromethyl)phenyl)acetyl)piperidin-4-yl)-1,4-dihydroquinoxaline-2,3-dione] |  | + |
| O=C(Cc1ccc(C(F)(F)F)cc1)N1CCC(N2CC(=S)Nc3ccccc32)CC1 [GEN1-133] | 31.27% |  |
| O=C(N1CCC(n2c(=O)[nH]c3cccc(C(F)(F)F)c32)CC1)C1(c2ccc(C(F)(F)F)cc2)CC1 [GEN1-146, 7-(trifluoromethyl)-1-(1-(1-(4-(trifluoromethyl)phenyl)cyclopropane-1-carbonyl)piperidin-4-yl)-1,3-dihydro-2H-benzo[d]imidazol-2-one] |  | + |
| O=C(Cc1ccc(C(F)(F)F)cc1)N1CCC(N2C/C(=N\O)Nc3ccccc32)CC1 [GEN1-150, (E)-1-(4-(3-(hydroxyimino)-3,4-dihydroquinoxaline-1(2H)-yl)piperidin-1-yl)-2-(4-(trifluoromethyl)phenyl)ethane-1-one] |  | − |
| O=C(Nc1ccccn1)NC1CCN(C(=O)Cc2ccc(C(F)(F)F)cc2)CC1 [GEN1-163, 1-(pyridin-2-yl)-3-(1-(2-(4-(trifluoromethyl)phenyl)acetyl)piperidin-4-yl)urea] |  | − |
| NC(=O)N(c1ccccn1)C1CCN(C(=O)Cc2ccc(C(F)(F)F)cc2)CC1 [GEN1-164, 1-(pyridin-2-yl)-1-(1-(2-(4-(trifluoromethyl)phenyl)acetyl)piperidin-4-yl)urea] |  | − |
| CC(=O)N1CCN(C2CCN(C(=O)Cc3ccc(C(F)(F)F)cc3)CC2)c2ccccc21 [GEN1-243, 1-(4-(4-acetyl-3,4-dihydroquinoxaline-1(2H)-yl)piperidin-1-yl)-2-(4-(trifluoromethyl)phenyl)ethenone] |  | + |
